Experimental data reported in ChEMBL document CHEMBL3751797, “Discovery of TRAF-2 and NCK-interacting kinase (TNIK) inhibitors by ligand-based virtual screening methods” (Medchemcomm, 2015).
Each block holds one molecule with its values, some of them ahead of it.

Assays:
[1] = biological target: T1, TRAF2 and NCK-interacting protein kinase (Homo sapiens, UniProt Q9UKE5); assay: Inhibition of recombinant TNIK (unknown origin) using LRRKtide as substrate at 10 uM after 1 hr in presence of 30 uM ATP
Target sequence in this assay (Q9UKE5 whole entry, looked up): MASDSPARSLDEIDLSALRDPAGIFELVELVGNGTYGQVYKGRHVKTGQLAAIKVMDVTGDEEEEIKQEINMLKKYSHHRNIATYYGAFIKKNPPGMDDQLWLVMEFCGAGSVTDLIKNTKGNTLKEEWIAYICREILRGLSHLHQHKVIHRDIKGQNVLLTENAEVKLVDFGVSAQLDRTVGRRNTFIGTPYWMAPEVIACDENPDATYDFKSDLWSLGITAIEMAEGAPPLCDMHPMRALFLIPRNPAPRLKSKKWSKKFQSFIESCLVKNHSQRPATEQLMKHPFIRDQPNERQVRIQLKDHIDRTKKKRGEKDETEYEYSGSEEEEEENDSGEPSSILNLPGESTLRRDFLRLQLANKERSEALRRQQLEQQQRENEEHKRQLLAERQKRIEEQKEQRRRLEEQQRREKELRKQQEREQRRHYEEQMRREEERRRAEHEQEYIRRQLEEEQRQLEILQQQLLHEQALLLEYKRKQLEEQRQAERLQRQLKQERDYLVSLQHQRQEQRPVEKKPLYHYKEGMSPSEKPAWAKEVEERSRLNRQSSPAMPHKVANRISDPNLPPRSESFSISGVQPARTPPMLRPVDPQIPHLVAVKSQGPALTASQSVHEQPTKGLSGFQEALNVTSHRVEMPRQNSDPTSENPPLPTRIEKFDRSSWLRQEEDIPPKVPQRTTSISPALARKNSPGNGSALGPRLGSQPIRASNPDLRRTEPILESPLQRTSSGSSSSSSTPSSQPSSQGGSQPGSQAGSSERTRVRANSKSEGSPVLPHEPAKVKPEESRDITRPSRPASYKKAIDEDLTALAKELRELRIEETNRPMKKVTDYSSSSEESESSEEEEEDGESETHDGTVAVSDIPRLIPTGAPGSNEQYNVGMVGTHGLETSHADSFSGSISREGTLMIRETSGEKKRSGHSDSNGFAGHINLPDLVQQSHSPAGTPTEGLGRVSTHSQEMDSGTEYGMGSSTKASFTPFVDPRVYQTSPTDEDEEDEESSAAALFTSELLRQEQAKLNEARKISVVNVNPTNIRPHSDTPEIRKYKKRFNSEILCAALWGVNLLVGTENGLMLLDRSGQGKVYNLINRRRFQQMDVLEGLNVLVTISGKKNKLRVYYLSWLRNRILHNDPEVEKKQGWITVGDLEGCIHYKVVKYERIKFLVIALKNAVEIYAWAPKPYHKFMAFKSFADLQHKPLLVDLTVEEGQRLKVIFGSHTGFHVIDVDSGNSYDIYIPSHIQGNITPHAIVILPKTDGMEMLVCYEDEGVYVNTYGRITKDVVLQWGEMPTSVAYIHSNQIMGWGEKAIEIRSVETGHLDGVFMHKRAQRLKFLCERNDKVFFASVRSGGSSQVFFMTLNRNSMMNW

NCI-H1703 = assay: Cytotoxicity against human NCI-H1703 cells transfected with lentiviral vector 7TFP assessed as cell viability at 10 uM after 72 hrs by ATPlite assay; assay type: cell-based; settings: nci-h1703, 72 h
[2] = biological target: T1, TRAF2 and NCK-interacting protein kinase; assay: Inhibition of recombinant TNIK (unknown origin) using LRRKtide as substrate after 1 hr in presence of 30 uM ATP
Target sequence in this assay (Q9UKE5 whole entry): as the sequence (Q9UKE5 whole entry, looked up) above

[3] = biological target: ALK tyrosine kinase receptor (Homo sapiens) (UniProt Q9UM73); assay: Inhibition of human ALK using IGF-1Rtide as substrate at 10 uM after 2 hrs in presence of 30 uM ATP
[4] = biological target: T2, Aurora kinase A (Homo sapiens) (UniProt O14965); assay: Inhibition of human AURA using kemptide as substrate at 10 uM after 1 hr in presence of 30 uM ATP
T2 sequence (whole entry): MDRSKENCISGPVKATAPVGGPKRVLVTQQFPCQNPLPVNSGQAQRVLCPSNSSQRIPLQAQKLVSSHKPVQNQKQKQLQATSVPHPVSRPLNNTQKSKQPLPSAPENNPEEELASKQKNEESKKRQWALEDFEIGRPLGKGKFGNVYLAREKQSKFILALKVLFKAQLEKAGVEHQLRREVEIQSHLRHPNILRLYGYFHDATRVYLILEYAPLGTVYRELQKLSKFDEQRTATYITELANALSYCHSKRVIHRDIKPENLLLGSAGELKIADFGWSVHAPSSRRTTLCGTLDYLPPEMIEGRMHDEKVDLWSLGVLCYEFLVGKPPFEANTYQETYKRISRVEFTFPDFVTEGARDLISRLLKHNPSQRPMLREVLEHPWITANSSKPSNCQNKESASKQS

[5] = biological target: Tyrosine-protein kinase BTK (Homo sapiens) (UniProt Q06187); assay: Inhibition of human BTK using srctide as substrate at 10 uM after 1 hr in presence of 30 uM ATP
Tyrosine-protein kinase BTK (Homo sapiens), sequence (Q06187 whole entry): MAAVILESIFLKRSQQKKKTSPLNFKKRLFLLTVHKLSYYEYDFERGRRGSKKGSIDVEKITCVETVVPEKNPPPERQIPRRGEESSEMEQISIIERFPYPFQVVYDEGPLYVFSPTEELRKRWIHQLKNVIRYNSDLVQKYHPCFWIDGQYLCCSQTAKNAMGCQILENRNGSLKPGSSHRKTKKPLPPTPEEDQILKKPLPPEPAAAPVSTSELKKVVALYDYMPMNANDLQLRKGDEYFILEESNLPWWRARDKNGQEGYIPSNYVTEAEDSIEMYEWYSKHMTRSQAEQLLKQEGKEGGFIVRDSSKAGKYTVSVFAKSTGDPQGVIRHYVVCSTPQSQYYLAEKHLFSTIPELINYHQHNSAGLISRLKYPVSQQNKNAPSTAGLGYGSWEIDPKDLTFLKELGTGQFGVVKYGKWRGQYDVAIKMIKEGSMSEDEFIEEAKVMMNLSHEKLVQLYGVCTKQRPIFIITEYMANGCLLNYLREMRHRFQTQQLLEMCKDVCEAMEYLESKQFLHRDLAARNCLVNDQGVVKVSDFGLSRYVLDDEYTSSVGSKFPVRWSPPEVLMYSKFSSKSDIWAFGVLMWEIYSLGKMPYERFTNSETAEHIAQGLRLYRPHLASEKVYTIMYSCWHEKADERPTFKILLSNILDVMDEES

[6] = biological target: Epidermal growth factor receptor (Homo sapiens) (UniProt P00533); assay: Inhibition of human EGFR using srctide as substrate at 10 uM after 1 hr in presence of 30 uM ATP
[7] = biological target: Fibroblast growth factor receptor 1 (Homo sapiens) (UniProt P11362); assay: Inhibition of human FGFR1 using IGF-1Rtide as substrate at 10 uM after 1 hr in presence of 30 uM ATP
[8] = biological target: Fibroblast growth factor receptor 2 (Homo sapiens) (UniProt P21802); assay: Inhibition of human FGFR2 using IGF-1Rtide as substrate at 10 uM after 1 hr in presence of 30 uM ATP
[9] = biological target: Receptor-type tyrosine-protein kinase FLT3 (Homo sapiens) (UniProt P36888); assay: Inhibition of human FLT3 using srctide as substrate at 10 uM after 1 hr in presence of 30 uM ATP
[10] = biological target: Glycogen synthase kinase-3 (Homo sapiens) (UniProt P49840+P49841); assay: Inhibition of human GSK3 using GSM as substrate at 10 uM after 1.5 hrs in presence of 30 uM ATP; assay type: protein assay
[11] = biological target: Insulin-like growth factor 1 receptor (Homo sapiens) (UniProt P08069); assay: Inhibition of human IGF1R at 10 uM in presence of 30 uM ATP
[12] = biological target: Tyrosine-protein kinase JAK2 (Homo sapiens) (UniProt O60674); assay: Inhibition of human JAK2 using IGF-1Rtide as substrate at 10 uM after 1 hr in presence of 30 uM ATP
Tyrosine-protein kinase JAK2 (Homo sapiens), sequence (O60674 whole entry): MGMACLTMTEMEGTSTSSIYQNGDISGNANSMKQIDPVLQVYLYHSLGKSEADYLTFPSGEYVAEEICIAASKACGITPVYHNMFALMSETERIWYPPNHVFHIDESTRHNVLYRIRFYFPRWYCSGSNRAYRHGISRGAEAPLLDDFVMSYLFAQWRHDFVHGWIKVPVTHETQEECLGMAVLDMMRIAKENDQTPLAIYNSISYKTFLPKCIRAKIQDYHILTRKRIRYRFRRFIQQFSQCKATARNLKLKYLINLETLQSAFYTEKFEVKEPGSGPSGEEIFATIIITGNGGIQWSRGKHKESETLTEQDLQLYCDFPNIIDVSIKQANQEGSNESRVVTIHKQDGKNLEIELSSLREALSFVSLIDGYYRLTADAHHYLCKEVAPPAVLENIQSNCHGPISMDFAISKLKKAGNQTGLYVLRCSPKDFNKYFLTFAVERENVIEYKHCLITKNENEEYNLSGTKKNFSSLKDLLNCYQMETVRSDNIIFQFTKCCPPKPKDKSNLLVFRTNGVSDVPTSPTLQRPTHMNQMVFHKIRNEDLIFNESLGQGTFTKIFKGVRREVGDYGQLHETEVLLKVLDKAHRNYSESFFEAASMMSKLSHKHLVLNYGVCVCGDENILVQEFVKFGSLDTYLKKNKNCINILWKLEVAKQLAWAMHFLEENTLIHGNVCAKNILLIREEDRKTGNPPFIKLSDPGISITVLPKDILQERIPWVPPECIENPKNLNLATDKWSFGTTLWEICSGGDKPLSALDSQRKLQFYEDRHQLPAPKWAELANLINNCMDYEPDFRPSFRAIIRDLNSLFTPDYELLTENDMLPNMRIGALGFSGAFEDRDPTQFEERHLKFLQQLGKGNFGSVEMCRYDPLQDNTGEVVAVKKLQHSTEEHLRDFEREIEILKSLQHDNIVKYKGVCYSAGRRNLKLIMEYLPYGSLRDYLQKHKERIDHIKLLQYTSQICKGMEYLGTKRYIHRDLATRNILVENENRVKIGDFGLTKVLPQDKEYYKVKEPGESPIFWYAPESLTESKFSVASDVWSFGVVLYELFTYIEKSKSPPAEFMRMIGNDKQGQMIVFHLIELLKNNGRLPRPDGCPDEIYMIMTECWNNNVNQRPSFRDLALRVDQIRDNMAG

[13] = biological target: Vascular endothelial growth factor receptor 2 (Homo sapiens) (UniProt P35968); assay: Inhibition of human KDR using srctide as substrate at 10 uM after 1 hr in presence of 30 uM ATP
Vascular endothelial growth factor receptor 2 (Homo sapiens), sequence (P35968 whole entry): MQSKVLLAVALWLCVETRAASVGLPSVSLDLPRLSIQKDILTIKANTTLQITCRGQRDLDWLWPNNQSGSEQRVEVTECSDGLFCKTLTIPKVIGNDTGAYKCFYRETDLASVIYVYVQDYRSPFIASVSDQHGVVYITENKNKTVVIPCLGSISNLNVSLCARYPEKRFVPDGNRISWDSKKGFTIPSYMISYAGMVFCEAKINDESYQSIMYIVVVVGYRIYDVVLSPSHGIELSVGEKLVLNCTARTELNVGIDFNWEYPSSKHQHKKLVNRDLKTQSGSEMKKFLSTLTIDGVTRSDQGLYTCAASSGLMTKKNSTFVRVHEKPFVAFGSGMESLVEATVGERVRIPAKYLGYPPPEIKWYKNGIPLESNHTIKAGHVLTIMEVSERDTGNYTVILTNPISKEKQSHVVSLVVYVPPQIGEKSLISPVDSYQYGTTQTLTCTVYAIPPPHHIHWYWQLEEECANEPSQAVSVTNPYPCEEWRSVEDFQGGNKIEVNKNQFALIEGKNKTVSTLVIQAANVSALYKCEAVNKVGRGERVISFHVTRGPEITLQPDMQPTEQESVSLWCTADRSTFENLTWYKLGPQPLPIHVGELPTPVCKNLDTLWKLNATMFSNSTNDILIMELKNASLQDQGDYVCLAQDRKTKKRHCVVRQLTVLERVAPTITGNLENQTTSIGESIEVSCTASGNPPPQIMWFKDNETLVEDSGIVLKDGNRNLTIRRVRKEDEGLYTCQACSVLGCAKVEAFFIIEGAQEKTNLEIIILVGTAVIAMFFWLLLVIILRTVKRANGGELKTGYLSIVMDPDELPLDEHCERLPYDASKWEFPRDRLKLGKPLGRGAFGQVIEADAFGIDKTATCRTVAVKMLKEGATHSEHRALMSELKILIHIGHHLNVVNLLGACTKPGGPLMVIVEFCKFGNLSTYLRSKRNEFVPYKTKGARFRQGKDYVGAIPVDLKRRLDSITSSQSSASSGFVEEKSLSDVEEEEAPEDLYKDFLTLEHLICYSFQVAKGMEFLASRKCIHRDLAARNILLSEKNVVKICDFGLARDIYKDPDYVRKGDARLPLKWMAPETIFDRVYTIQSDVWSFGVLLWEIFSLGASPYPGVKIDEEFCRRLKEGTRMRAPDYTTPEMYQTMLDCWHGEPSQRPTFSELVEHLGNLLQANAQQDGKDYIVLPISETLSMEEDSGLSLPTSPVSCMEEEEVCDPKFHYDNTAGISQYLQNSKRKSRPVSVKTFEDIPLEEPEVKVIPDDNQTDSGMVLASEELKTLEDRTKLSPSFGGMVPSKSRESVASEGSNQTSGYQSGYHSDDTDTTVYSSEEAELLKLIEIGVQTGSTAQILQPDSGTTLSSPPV

[14] = biological target: Platelet-derived growth factor receptor beta (Homo sapiens) (UniProt P09619); assay: Inhibition of human PDGFRbeta using srctide as substrate at 10 uM after 1 hr in presence of 30 uM ATP
[15] = biological target: Serine/threonine-protein kinase pim-1 (Homo sapiens) (UniProt P11309); assay: Inhibition of human PIM1 using S6K as substrate at 10 uM after 1 hr in presence of 30 uM ATP
Serine/threonine-protein kinase pim-1 (Homo sapiens), sequence (P11309 whole entry, looked up): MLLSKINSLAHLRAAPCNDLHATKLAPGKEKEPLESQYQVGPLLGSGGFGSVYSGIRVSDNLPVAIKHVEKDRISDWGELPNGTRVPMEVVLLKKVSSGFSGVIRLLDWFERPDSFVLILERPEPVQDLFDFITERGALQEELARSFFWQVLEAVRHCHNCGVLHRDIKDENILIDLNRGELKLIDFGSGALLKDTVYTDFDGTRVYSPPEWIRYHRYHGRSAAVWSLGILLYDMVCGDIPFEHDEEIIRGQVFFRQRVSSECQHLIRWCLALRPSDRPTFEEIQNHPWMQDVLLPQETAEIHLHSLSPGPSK

[16] = biological target: Tyrosine-protein kinase SYK (Homo sapiens) (UniProt P43405); assay: Inhibition of human SYK using srctide as substrate at 10 uM after 1 hr in presence of 30 uM ATP
[17] = biological target: T1, TRAF2 and NCK-interacting protein kinase; assay: Competitive inhibition of recombinant TNIK (unknown origin) using LRRKtide as substrate after 1 hr in presence of 3 uM ATP
Target sequence in this assay (Q9UKE5 whole entry): as the sequence (Q9UKE5 whole entry, looked up) above

[18] = biological target: T1, TRAF2 and NCK-interacting protein kinase; assay: Competitive inhibition of recombinant TNIK (unknown origin) using LRRKtide as substrate after 1 hr in presence of 30 uM ATP
Target sequence in this assay (Q9UKE5 whole entry): as the sequence (Q9UKE5 whole entry, looked up) above

[19] = biological target: T1, TRAF2 and NCK-interacting protein kinase; assay: Competitive inhibition of recombinant TNIK (unknown origin) using LRRKtide as substrate after 1 hr in presence of 300 uM ATP
Target sequence in this assay (Q9UKE5 whole entry): as the sequence (Q9UKE5 whole entry, looked up) above

[20] = biological target: Phosphatidylinositol 4,5-bisphosphate 3-kinase catalytic subunit alpha isoform (Homo sapiens) (UniProt P42336); assay: Inhibition of human PI3Kalpha using PIP2 as substrate at 10 uM after 1 hr in presence of 30 uM ATP

inhibition [1]: 4.9%
Structure (SMILES): Cc1cc([N+](=O)[O-])ccc1NC(=O)c1ccc(-c2cccc(Cl)c2Cl)o1

Structure (SMILES): O=C1[C@H](Cc2ccc(O)cc2)N2C(=O)CCN(C(=O)NCc3ccccc3)[C@H]2CN1Cc1cccc2ccccc12
Activity (NCI-H1703): Non-toxic

inhibition [1]: 32%
Structure (SMILES): COc1ccc(C(=O)/C=C/Nc2ccc(C)c(C)c2)cc1

inhibition [1]: 46%
Structure (SMILES): CCC(=O)N1CCN(c2ccc(NC(=O)c3cc4ccccc4o3)cc2)CC1

inhibition [1]: 40%
Structure (SMILES): Cc1ccc(-c2cc(C(=O)Nc3ccncc3)no2)cc1

inhibition [1]: 63%
IC50 [2]: 2740 nM
Structure (SMILES): CC(C)(C)c1ccc(/C=C/C(=O)Nc2ccccc2C(N)=O)cc1

inhibition [1]: 18.7%
Structure (SMILES): O=C(Nc1ccccc1Cl)c1ccc(-c2ccc(Cl)cc2)o1

inhibition [1]: 23.1%
Structure (SMILES): CC(=O)Nc1ccc(NC(=O)c2ccc(-c3ccc(Cl)c(Cl)c3)o2)cc1

inhibition [1]: 61.7%
Structure (SMILES): Cc1cc(C(=O)Nc2ccccc2C(N)=O)sc1-c1ccccc1

inhibition [1]: 60.4%
Structure (SMILES): Cc1cc(C(=O)Nc2ccc(C(=O)N3CCOCC3)cc2)sc1-c1ccccc1

inhibition [1]: -4.9%
Structure (SMILES): Cc1cc(C(=O)Nc2cccc(S(=O)(=O)N3CCOCC3)c2)sc1-c1ccccc1

inhibition [1]: 22.3%
Structure (SMILES): Cc1cc([N+](=O)[O-])ccc1-c1ccc(C(=O)Nc2cccc(Cl)c2N2CCOCC2)o1

Structure (SMILES): Cc1c(Cl)cccc1-c1ccc(C(=O)Nc2ccc(S(N)(=O)=O)cc2)o1
inhibition [1]: 76.4%
IC50 [2]: 260 nM
inhibition [3]: 18.4%
inhibition [4]: 17.4%
inhibition [5]: -2.3%
inhibition [6]: 51.7%
inhibition [7]: 5.2%
inhibition [8]: 32.4%
inhibition [9]: 27%
inhibition [10]: 17.3%
inhibition [11]: 7.7%
inhibition [12]: 23.7%
inhibition [13]: 0.1%
inhibition [14]: 13.8%
inhibition [15]: 24%
inhibition [16]: 15.3%
Activity (NCI-H1703): Non-toxic

inhibition [1]: 70%
IC50 [2]: 3570 nM
Structure (SMILES): O=C(Nc1nnc(/C=C/c2ccccc2)s1)c1ccco1

inhibition [1]: 72.8%
Structure (SMILES): CNS(=O)(=O)c1ccc(NC(=O)c2cc(C)c(-c3ccccc3)s2)cc1

inhibition [1]: 79%
IC50 [2]: 10300 nM
Structure (SMILES): CC[C@@H]1CCc2c(sc(NC(=O)Nc3ccccc3)c2C(N)=O)C1

inhibition [1]: 4.1%
Structure (SMILES): CC(C)C(=O)Nc1cccc(NC(=O)c2ccc(-c3ccc(Cl)cc3)o2)c1

Structure (SMILES): CN1CCN(c2ccc3nc(-c4c(N)c5c(F)cccc5[nH]c4=O)[nH]c3c2)CC1 [DOVITINIB]
Activity (NCI-H1703): Toxic

inhibition [1]: 8.9%
Structure (SMILES): O=C(Nc1cc(Cl)cc(Cl)c1)c1ccc(-c2ccc([N+](=O)[O-])cc2)o1

inhibition [1]: 45%
Structure (SMILES): CN1CCN(c2ccc(NC(=O)c3cccc(Cl)c3)cc2)CC1

inhibition [1]: 43%
Structure (SMILES): Cc1ccc(NC=C2C(=O)c3ccccc3C2=O)cc1C

inhibition [1]: 16.8%
Structure (SMILES): O=C(Nc1cccc(NC(=O)c2ccc(Cl)cc2Cl)c1)c1ccc(-c2cccc([N+](=O)[O-])c2)o1

Structure (SMILES): CN1CCN(c2ccc(NC(=O)c3ccc(-c4cc(Cl)ccc4Cl)o3)cc2)CC1
inhibition [1]: 94%
IC50 [2]: 850 nM
IC50 [17]: 394 nM
IC50 [18]: 849 nM
IC50 [19]: 6180 nM
inhibition [3]: 17.4%
inhibition [4]: 19.5%
inhibition [5]: 4.3%
inhibition [6]: 9.3%
inhibition [7]: 21.6%
inhibition [8]: 54.8%
inhibition [9]: 93.8%
inhibition [10]: 20.7%
inhibition [11]: 3.4%
inhibition [12]: 3.5%
inhibition [13]: 64.9%
inhibition [14]: 75.7%
inhibition [20]: 11.7%
inhibition [15]: 46.9%
inhibition [16]: 34.9%
Activity (NCI-H1703): Non-toxic

inhibition [1]: 72%
IC50 [2]: 3510 nM
Structure (SMILES): O=C(Nc1ccc(Br)cc1)Nc1ccc(CN2CCCC2)cc1

inhibition [1]: 12.9%
Structure (SMILES): Cc1ccccc1C(=O)N1CCN(c2ccc(NC(=O)c3ccc(-c4ccc(Cl)cc4)o3)cc2)CC1

inhibition [1]: 39%
Structure (SMILES): CN(C)c1ccc(NC(=O)c2cc3ccccc3o2)cc1

inhibition [1]: 42%
Structure (SMILES): O=C(NNC(=O)c1cc2ccccc2cc1O)NC1CCCCC1
